Experimental data taken from patent publication US20150315188A1, “COMPOUNDS AND METHODS FOR TREATMENT OF HYPERTENSION” (MEDIVATION TECHNOLOGIES, INC., priority 2012, published 2015).
pKi: −log10 of the molar value.

Assays:
Design in all cases: purchased Milipore (Millipore)
[1] = target: T1, Human adrenergic α2B receptor (Homo sapiens, UniProt P18089); experiment: Radioligand binding, adrenergic α2B (Protocol Group B); details: Protocol Group B; for Percentage inhibition of ligand binding, Adrenergic α2B (10 nM) / inhibition at 0.01 µM: 10 nM compound; for Percentage inhibition of ligand binding, Adrenergic α2B (10 nM): 0.01 µM; for Percentage inhibition of ligand binding, Adrenergic α2B (30 nM) / inhibition at 0.03 µM: 30 nM compound; for Percentage inhibition of ligand binding, Adrenergic α2B (30 nM): 0.03 µM; for inhibition at 0.1 µM: 0.1 μM compound, read-out: Percentage inhibition of ligand binding, Adrenergic α2B (0.1 μM); for inhibition at 0.01 µM: read-out: Percentage inhibition of ligand binding, Adrenergic α2B (10 nM); for inhibition at 0.03 µM: read-out: Percentage inhibition of ligand binding, Adrenergic α2B (30 nM); for pKi: estimated Ki, read-out: Ki α2B
T1 sequence (P18089 1-450): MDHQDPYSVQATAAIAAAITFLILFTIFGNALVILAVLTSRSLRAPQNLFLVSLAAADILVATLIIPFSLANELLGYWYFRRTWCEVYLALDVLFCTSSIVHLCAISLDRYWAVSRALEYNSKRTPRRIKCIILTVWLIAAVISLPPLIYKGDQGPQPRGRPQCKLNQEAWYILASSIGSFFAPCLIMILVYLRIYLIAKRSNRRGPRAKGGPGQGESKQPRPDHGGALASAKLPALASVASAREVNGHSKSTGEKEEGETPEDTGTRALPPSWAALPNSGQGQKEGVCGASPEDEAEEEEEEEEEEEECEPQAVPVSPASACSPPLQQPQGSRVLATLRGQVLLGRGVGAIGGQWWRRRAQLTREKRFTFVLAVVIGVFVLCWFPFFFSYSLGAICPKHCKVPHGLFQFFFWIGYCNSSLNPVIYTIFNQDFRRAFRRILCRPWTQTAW
How it was run: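 Recombinant human α2B receptor membranes incubated with compounds in 50 mM Tris-HCl pH 7.4, 5 mM MgCl2, 1 mM CaCl2, 0.2% BSA, 1% DMSO vehicle. Non-specific binding defined with 10 μM rauwolscine. Values are percent inhibition of specific binding or estimated Ki.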

[2] = target: T2, Human adrenergic α2A receptor (Homo sapiens, UniProt P08913); experiment: Radioligand binding, adrenergic α2A (Protocol Group B); details: Protocol Group B; for Percentage inhibition of ligand binding, Adrenergic α2A (0.1 μM) / inhibition at 0.1 µM: 0.1 μM compound; for Percentage inhibition of ligand binding, Adrenergic α2A (0.3 μM) / inhibition at 0.3 µM: 0.3 μM compound; for inhibition at 0.1 µM: read-out: Percentage inhibition of ligand binding, Adrenergic α2A (0.1 μM); for inhibition at 0.3 µM: read-out: Percentage inhibition of ligand binding, Adrenergic α2A (0.3 μM); for pKi: estimated Ki
T2 sequence (P08913 1-465): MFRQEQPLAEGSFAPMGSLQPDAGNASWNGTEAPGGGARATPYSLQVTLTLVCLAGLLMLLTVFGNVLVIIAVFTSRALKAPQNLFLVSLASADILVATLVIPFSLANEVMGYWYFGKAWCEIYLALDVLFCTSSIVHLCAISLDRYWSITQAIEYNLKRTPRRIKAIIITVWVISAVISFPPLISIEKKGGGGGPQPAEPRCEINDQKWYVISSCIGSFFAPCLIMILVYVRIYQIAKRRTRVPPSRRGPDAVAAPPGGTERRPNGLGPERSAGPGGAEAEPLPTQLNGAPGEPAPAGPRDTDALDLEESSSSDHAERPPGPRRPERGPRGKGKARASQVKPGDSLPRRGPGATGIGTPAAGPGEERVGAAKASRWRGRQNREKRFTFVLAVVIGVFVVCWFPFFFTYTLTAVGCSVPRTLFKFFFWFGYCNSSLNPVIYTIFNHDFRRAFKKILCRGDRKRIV
How it was run: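 Membranes from recombinant cells expressing the receptor, in 50 mM Tris-HCl pH 7.4 with 5 mM MgCl2, 1 mM CaCl2, 0.2% BSA; compounds incubated with 2 nM [^3H]MK-912 for 60 min at 25° C. Nonspecific binding defined by 10 μM rauwolscine; filtration, counting; percent inhibition of specific binding, or estimated Ki.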

[3] = target: T3, Human adrenergic α1B receptor (Homo sapiens, UniProt P35368); experiment: Radioligand binding, adrenergic α1B (Protocol Group B); details: Protocol Group B; for Percentage inhibition of ligand binding, Adrenergic α1B (0.1 μM) / inhibition at 0.1 µM: 0.1 μM compound; for Percentage inhibition of ligand binding, Adrenergic α1B (0.3 μM) / inhibition at 0.3 µM: 0.3 μM compound; for inhibition at 0.1 µM: read-out: Percentage inhibition of ligand binding, Adrenergic α1B (0.1 μM); for inhibition at 0.3 µM: read-out: Percentage inhibition of ligand binding, Adrenergic α1B (0.3 μM); for pKi: estimated Ki
T3 sequence (P35368 1-520): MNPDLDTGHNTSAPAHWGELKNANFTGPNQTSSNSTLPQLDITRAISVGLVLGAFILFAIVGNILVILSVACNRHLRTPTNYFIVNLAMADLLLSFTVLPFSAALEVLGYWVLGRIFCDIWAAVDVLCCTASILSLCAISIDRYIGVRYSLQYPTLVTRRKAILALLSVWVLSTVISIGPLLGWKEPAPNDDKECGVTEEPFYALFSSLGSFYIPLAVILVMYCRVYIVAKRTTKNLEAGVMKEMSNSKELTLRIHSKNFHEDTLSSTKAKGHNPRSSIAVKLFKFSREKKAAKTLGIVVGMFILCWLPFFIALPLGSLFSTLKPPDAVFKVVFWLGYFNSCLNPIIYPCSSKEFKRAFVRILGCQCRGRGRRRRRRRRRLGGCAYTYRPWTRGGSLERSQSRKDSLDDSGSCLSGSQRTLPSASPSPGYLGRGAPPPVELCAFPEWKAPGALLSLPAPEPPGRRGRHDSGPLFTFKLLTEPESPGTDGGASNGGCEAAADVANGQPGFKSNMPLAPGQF
How it was run: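 Recombinant human α1B membranes incubated with test compound and 0.3 nM [3H]prazosin, 60 min at 25 °C, in 50 mM Tris-HCl pH 7.4, 10 mM MgCl2, 1 mM EDTA; nonspecific binding with 10 μM prazosin. Filter-bound radioactivity counted; values are % inhibition of specific binding or estimated Ki.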

| SMILES | Percentage inhibition of ligand binding, Adrenergic α2B (10 nM) [1] [%] | Percentage inhibition of ligand binding, Adrenergic α2B (30 nM) [1] [%] | inhibition at 0.1 µM [1] [%] | Percentage inhibition of ligand binding, Adrenergic α2A (0.1 μM) [2] [%] | Percentage inhibition of ligand binding, Adrenergic α2A (0.3 μM) [2] [%] | Percentage inhibition of ligand binding, Adrenergic α1B (0.1 μM) [3] [%] | Percentage inhibition of ligand binding, Adrenergic α1B (0.3 μM) [3] [%] | inhibition at 0.01 µM [1] [%] | inhibition at 0.03 µM [1] [%] | pKi [1] | inhibition at 0.1 µM [2] [%] | inhibition at 0.3 µM [2] [%] | pKi [2] | inhibition at 0.1 µM [3] [%] | inhibition at 0.3 µM [3] [%] | pKi [3] |
| --- | --- | --- | --- | --- | --- | --- | --- | --- | --- | --- | --- | --- | --- | --- | --- | --- |
| Cc1cc(F)cc2c3c(n(CC(C)(O)c4cccnc4)c12)CCN1CCCC31 (single isomer, unassigned) [75a] | 8 | 40 | 87 | 3 | 22 | −1 | 12 | – | – | – | – | – | – | – | – | – |
| Cc1cc(F)c2c(c1)c1c(n2CC(C)(O)c2cccnc2)CCN2CCCC12 (single isomer, unassigned) [79b] | – | – | 97 | – | – | – | – | 86 | 95 | 8.81 | 55 | 74 | 7.32 | 28 | 57 | – |
| Cc1cc(F)c2c(c1)c1c(n2CC(C)(O)c2ccncc2)CCN2CCCC12 (single isomer, unassigned) [81a] | – | – | 99 | – | – | 72 | – | 96 | 99 | 9.04 | 71 | 90 | 7.71 | – | 89 | 7.84 |
| Cc1cc(Cl)c2c(c1)c1c(n2CC(C)(O)c2ccncc2)CCN2CCCC12 (single isomer, unassigned) [91a] | – | – | – | – | – | – | – | 93 | 95 | 9.15 | 81 | 91 | 8.06 | 59 | 81 | 7.68 |
| Cc1cc(Cl)c2c(c1)c1c(n2CC(C)(O)c2ccncc2)CCN2CCCC12 (single isomer, unassigned) [91b] | 95 | 97 | – | 67 | 86 | 43 | 68 | – | – | 9.03 | – | – | 7.55 | – | – | 7.42 |
| OC(Cn1c2c(c3cc(Cl)cc(F)c31)C1CCCN1CC2)c1ccncc1 (single isomer, unassigned) [135a] | – | – | – | 57 | – | – | – | 79 | 93 | 8.53 | – | 77 | 7.18 | 71 | 92 | 7.64 |
| OC(Cn1c2c(c3cc(Cl)cc(F)c31)C1CCCN1CC2)c1ccncc1 (single isomer, unassigned) [135b] | 84 | 83 | – | 79 | 84 | 64 | 81 | – | – | 9.16 | – | – | 8.51 | – | – | – |
| Cc1cc(F)cc2c3c(n(CC(O)c4ccncc4)c12)CCN1CCCC31 (single isomer, unassigned) [136a] | – | – | – | 69 | – | – | – | 91 | 95 | 8.82 | – | 87 | 7.84 | 31 | 70 | 7.83 |
| Cc1cc(F)c2c(c1)c1c(n2CC(O)c2ccncc2)CCN2CCCC12 (single isomer, unassigned) [137a] | 83 | – | – | 56 | 79 | – | – | – | 96 | 8.82 | – | – | 7.36 | 58 | 85 | 7.82 |
| Cc1cc(F)c2c(c1)c1c(n2CC(O)c2ccncc2)CCN2CCCC12 (single isomer, unassigned) [137b] | 106 | 107 | – | 94 | 102 | 74 | 94 | – | – | 9.10 | – | – | 8.62 | – | – | 8.14 |
| Cc1ccc2c(c1)c1c(n2CC(OCC2CCC2)c2ccncc2)CCN2CCCC12 (single isomer, unassigned) [138a] | – | – | – | – | – | 84 | – | 91 | 90 | 9.02 | 91 | 88 | 8.66 | – | 88 | 8.62 |
| Cc1ccc2c(c1)c1c(n2CC(OCC2CCC2)c2ccncc2)CCN2CCCC12 (single isomer, unassigned) [138b] | 82 | 81 | – | 82 | 84 | 57 | 80 | – | – | 8.84 | – | – | 8.00 | – | – | 7.85 |
| Cc1ccc2c(c1)c1c(n2CC(O)c2ccncc2)CCN2CCCC12 (single isomer, unassigned) [Compound No. 178d] | – | 104 | – | 96 | – | 99 | – | – | 97 | – | 90 | – | – | 94 | – | – |
| Cc1cc(F)c2c(c1)c1c(n2CC(C)(O)c2cccnc2)CCN2CCCC12 (stereo not shown) [Compound No. 79a] | – | 96 | 97 | 81 | 93 | 47 | 79 | – | – | 9.11 | – | – | 7.97 | – | – | 7.37 |
